# Experimental data reported in article PMC6934184, “Selective DNA-PKcs inhibition extends the therapeutic index of localized radiotherapy and chemotherapy” (The Journal of Clinical Investigation, 2019).
# Several values for one entry are separate records, joined by “and”; a condition that tells them apart may be missing. Equal entries are not always repeated. Entries after “also recorded” stand apart in the source; their conditions may differ.
# How the values were obtained:
# SJSA-1 tumor xenografts = experiment: subcutaneous SJSA-1 xenograft with parenteral etoposide; type: in vivo, CD-1 nude mice
# Method: Combining systemic administration of etoposide + NU5455 in vivo
# SJSA1 cells (1 x 10^7 cells/mouse in 50 µl, 50% v/v Matrigel) were implanted s.c. into the right flank of female CD-1 nude mice. When tumor volumes reached 103-121 mm3 mice were treated daily, for five consecutive days, with NU5455 (30 mg/kg or 100 mg/kg once -daily p.o. in NMP:Encapsin (30% aq):PEG4000 (1:6:3 v/v/v) ) or vehicle, followed immediately with etoposide (5 mg/kg i.p. in saline). Body weight and tumor volume measurements were taken daily during treatment and three times per week post -treatment. Tumor volume was calculated from two-dimensional electronic caliper measurements (Mitutoyo) using the equation ‘width2 x length/2’, where width was the smaller side, and length the longer dimension of the tumor. Mice were humanely killed when; (i) an adverse effect on clinical condition was evident, (ii) tumor bilateral measurements reached 10 mm x 10 mm, (iii) a tumor measurement in any di mension reached 15 mm, or (iv) at study termination. […]
# Calu-6 cells = experiment: γH2AX and 53BP1 foci after 10 Gy; type: cell-based, human; details: 5 μM, 5 hours after irradiation
# Method: (§1) Cell line γH2AX and 53BP1 foci immunofluorescence and quantitation
# (§2) Cells grown on coverslips or in 96-well plates were treated with 1 or 5 µM NU5455 or DMSO 1 hour prior to irradiation (0, 2.5 or 10 Gy) using an RS 320 X-ray Research System (Gulmay Medical). At set timepoints (15 or 30 minutes, or 1, 4, 5, 6, or 24 hours post-irradiation), cells were washed and fixed in methanol or 3% paraformaldehyde (PFA). Cells were blocked and permeabilized in 1% (v/v) goat serum/1% (w/v) BSA/0.1% (v/v) Triton X100 or 0.1% (v/v) Triton X100 containing 10% (w/v) dried milk powder and 2% (w/v) bovine serum albumin, followed by incubation with antibodies against γH2AX (JBW301, Millipore #05-636) and/or 53BP1 (Cell Signaling #4937). Cells were then washed and incubated with Alexa Fluor 488 goat anti-mouse and/or Alexa Fluor 568 goat anti -rabbit antibodies (A11001 or A11011 respectively, Invitrogen). In A549 and Calu-6, cells were Hoechst stained (5 µg/ml), and the average numbers of γH2AX and 53BP1 foci per cell were quantified from 400 nuclei per sample using an In Cell analyzer 1000 (GE Healthcare). For MCF7 cells, coverslips were mounted using Vectashield mounting medium with DAPI (Vector Labs) and imaged using a Leica TCS SPE confocal fluorescence microscope. Total fluorescence intensity was determined using ImagePro Plus 5.0 software (Media Cybernetics).
# (§3) Clonogenic survival assays […]
# A549 cells = experiment: γH2AX and 53BP1 foci after 10 Gy; type: cell-based, human; details: 5 μM, 5 hours after irradiation
# Method: as §1, §2, §3
smiles,measurement,setting,value
CN(C(=O)CN1CCOCC1)c1ccc2sc3c(-c4cccc5c(=O)cc(N6CC7CCC(C6)O7)oc45)cccc3c2c1 [NU5455],enhancement of etoposide antitumor effect,"SJSA-1 tumor xenografts; NU5455 30 mg/kg oral + etoposide 5 mg/kg i.p., 5 consecutive days",does not significantly enhance; also recorded: did not enhance it significantly
same,body weight,SJSA-1 tumor xenografts; NU5455 100 mg/kg oral + etoposide 5 mg/kg i.p.,increased weight loss by day 8
same,enhancement of etoposide antitumor activity,"SJSA-1 tumor xenografts; NU5455 100 mg/kg oral + etoposide 5 mg/kg i.p., 5 sequential days",potentiated significantly
same,animals requiring humane intervention (>15% body-weight loss),"SJSA-1 tumor xenografts; day 8, NU5455 100 mg/kg oral + etoposide 5 mg/kg i.p.",2 of 10 and 2
same,"tolerability, NU5455 alone",SJSA-1 tumor xenografts; greater dose (100 mg/kg oral),well tolerated by itself
same,number of colocalized γH2AX and 53BP1 foci,Calu-6 cells,significant increase
same,number of colocalized γH2AX and 53BP1 foci,A549 cells,significant increase
